Results reported in patent US9018206B2, “Carboxamide compounds and their use as calpain inhibitors” (AbbVie Deutschland GmbH & Co. KG, priority 2009, dated 2015).

Key:
Format in all cases: biochemical
[1] = target: T1, cathepsin B isolated from human liver (Homo sapiens, UniProt P07858); experiment: Cathepsin B enzyme inhibition in vitro (kinetic fluorescence assay); conditions: Ki(cathepsin B)/Ki(calpain) ratio
T1 construct: cathepsin B—isolated from human liver; purchased Calbiochem 219362; host or cells: human liver (tissue-derived)
Procedure: (§1) Testing for blockade of the corresponding enzymic activities was carried out by means of kinetic fluorescence assays (excitation 390 nm, emission 460 nm).
(§2) Apparent Ki values were calculated from the experimentally determined IC50 values by the Cheng-Prussoff relation assuming a reversible competitive enzyme inhibition. The Km values of the substrates used under the assay conditions indicated above were: 90 μM (Z-Phe-Arg-AMC, cathepsin B), 10 μM (Z-Gly-Pro-Arg-AMC, cathepsin K), 2 μM (Z-Phe-Arg-AMC, cathepsin L), and 30 μM (Z-Val-Val-Arg-AMC, cathepsin S).
(§3) The indicated Ki values are averages of the inhibition constants calculated on the basis of 2 to 4 independent dose-effect plots.
(§4) • 20 nM calpain-I—isolated from human erythrocytes (Calbiochem #208713), 100 μM Suc-Leu-Tyr-AMC (Bachem #I-1355) as substrate in buffer with 62 mM imidazole, 0.3 mM CaCl2, 0.10% CHAPS, 0.05% BSA, 1 mM DTT at pH 7.3 and room temperature. 1. Cathepsin B: • 0.25 nM cathepsin B—isolated from human liver (Calbiochem #219362), 100 μM Z-Phe-Arg-AMC (Bachem #I-1160) as substrate 50 mM MES, 2 mM EDTA, 0.05% Brij 35, 2.5 mM L-cysteine, pH 6.0, room temperature. 3. Cathepsin K: • 3 nM cathepsin K activated from recombinant human procathepsin K from E. coli (Calbiochem #342001), 10 μM Z-Gly-Pro-Arg-AMC (Biomol #P-142) as substrate in 50 mM MES, 2 mM EDTA, 0.05% Brij 35, 2.5 mM L-cysteine, pH 6.0, room temperature. 4. Cathepsin L: • 1 nM cathepsin L—isolated from human liver (Calbiochem #219402), 2 μM Z-Phe-Arg-AMC (Bachem #I-1160) as substrate in 50 mM MES, 2 mM EDTA, 0.05% Brij 35, 2.5 mM L-cysteine, pH 6.0, room temperature. 5. Cathepsin S: • 0.5 nM recombinant human cathepsin S from E. coli (Calbiochem #219343), 20 μM Z-Val-Val-Arg-AMC (Bachem #I-1540) as substrate in 50 mM MES, 2 mM EDTA, 0.05% Brij 35, 2.5 mM L-cysteine, pH 6.0, room temperature.

[2] = target: T2, cathepsin L isolated from human liver (Homo sapiens, UniProt P07711); experiment: Cathepsin L enzyme inhibition in vitro (kinetic fluorescence assay); conditions: Ki(cathepsin L)/Ki(calpain) ratio
T2 construct: cathepsin L—isolated from human liver; purchased Calbiochem 219402; host or cells: human liver (tissue-derived)
Procedure: as §1, §2, §3, §4

[3] = target: T3, calpain-I isolated from human erythrocytes (Homo sapiens, UniProt P07384); experiment: Calpain I enzyme inhibition in vitro (kinetic fluorescence assay); conditions: apparent Ki from IC50 (Cheng-Prussoff); 20 nM calpain-I, 100 μM Suc-Leu-Tyr-AMC, pH 7.3, room temperature
T3 construct: calpain-I—isolated from human erythrocytes; purchased Calbiochem 208713; host or cells: human erythrocytes (tissue-derived)
T3 sequence (P07384 1-714): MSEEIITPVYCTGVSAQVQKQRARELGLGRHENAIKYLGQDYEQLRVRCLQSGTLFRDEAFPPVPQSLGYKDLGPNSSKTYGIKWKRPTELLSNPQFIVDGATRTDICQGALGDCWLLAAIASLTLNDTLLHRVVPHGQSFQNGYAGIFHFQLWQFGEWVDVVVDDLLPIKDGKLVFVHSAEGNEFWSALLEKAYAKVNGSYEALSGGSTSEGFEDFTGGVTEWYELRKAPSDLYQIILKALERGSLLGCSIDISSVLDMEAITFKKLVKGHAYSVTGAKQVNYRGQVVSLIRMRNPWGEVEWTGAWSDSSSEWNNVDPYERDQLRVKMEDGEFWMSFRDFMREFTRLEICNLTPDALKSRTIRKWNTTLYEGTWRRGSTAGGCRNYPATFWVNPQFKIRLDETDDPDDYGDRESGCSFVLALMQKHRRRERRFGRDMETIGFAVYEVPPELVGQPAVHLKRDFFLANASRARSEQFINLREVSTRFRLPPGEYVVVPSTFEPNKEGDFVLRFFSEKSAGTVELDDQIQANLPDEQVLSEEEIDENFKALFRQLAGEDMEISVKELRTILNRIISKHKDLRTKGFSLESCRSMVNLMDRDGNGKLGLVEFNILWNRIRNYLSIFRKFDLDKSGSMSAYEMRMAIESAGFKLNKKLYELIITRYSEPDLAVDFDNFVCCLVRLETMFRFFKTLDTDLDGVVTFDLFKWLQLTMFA
T3 sequence (P04632 1-268 partner): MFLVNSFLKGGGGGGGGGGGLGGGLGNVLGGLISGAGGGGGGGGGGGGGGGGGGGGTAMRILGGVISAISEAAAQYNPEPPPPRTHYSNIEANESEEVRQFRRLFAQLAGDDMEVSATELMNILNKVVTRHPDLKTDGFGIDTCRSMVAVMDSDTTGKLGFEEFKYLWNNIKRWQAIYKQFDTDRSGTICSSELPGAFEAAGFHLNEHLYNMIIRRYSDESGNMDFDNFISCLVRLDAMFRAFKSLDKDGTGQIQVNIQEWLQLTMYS
Procedure: as §1, §2, §3, §4

[4] = target: T4, cathepsin K activated from recombinant human procathepsin K (Homo sapiens, UniProt P43235); experiment: Cathepsin K enzyme inhibition in vitro (kinetic fluorescence assay); conditions: Ki(cathepsin K)/Ki(calpain) ratio
T4 construct: purchased Calbiochem 342001; host or cells: E. coli
T4 sequence (P43235 115-329): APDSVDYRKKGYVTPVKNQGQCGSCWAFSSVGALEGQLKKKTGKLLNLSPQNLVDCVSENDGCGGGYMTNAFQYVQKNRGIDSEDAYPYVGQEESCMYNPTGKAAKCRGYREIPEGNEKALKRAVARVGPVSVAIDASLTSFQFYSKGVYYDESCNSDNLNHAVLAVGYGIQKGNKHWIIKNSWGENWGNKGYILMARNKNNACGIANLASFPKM
Procedure: as §1, §2, §3, §4

[5] = target: T5, recombinant human cathepsin S (Homo sapiens, UniProt P25774); experiment: Cathepsin S enzyme inhibition in vitro (kinetic fluorescence assay); conditions: Ki(cathepsin S)/Ki(calpain) ratio
T5 construct: purchased Calbiochem 219343; host or cells: E. coli
Procedure: as §1, §2, §3, §4

T2 sequence (P07711 114-333): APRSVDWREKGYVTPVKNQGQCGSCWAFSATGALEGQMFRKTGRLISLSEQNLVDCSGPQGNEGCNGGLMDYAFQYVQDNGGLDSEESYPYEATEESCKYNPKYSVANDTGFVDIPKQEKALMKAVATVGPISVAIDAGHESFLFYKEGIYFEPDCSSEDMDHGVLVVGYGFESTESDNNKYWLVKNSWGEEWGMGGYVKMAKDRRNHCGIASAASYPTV
T5 sequence (P25774 115-331): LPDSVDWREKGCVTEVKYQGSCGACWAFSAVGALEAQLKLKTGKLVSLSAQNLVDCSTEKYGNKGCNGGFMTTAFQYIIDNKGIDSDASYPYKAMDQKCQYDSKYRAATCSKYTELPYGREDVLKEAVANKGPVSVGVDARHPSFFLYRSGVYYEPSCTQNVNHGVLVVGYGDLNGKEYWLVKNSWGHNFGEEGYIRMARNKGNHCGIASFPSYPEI

| Sel cat. B [1] | Sel cat. L [2] | Ki [3] | Structure (SMILES) | Sel cat. K [4] | Sel cat. S [5] |
| --- | --- | --- | --- | --- | --- |
| ++ (10<Ki(cathepsin B)/Ki(calpain)≦30) | ++ (10<Ki(cathepsin B)/Ki(calpain)≦30) | 100 to 600 nM | N#Cc1cccc(CN2C(=O)CC[C@@H]2C(=O)NC(Cc2ccccc2)C(=O)C(N)=O)c1 (stereo partly drawn) [Example 16, (2R)—N-(4-Amino-3,4-dioxo-1-phenylbutan-2-yl)-1-(3-cyanobenzyl)-5-oxopyrrolidine-2-carboxamide] | +++ (Ki(cathepsin K)/Ki(calpain) ratio of >30) | + (10<Ki(cathepsin S)/Ki(calpain)≦30) |
| ++ (10<Ki(cathepsin B)/Ki(calpain)≦30) | ++ (10<Ki(cathepsin B)/Ki(calpain)≦30) | < 50 nM | NC(=O)C(=O)C(Cc1ccccc1)NC(=O)[C@H]1CCC(=O)N1Cc1cccc(Cl)c1 (stereo partly drawn) [Example 3, (2R)—N-(4-Amino-3,4-dioxo-1-phenylbutan-2-yl)-1-(3-chlorobenzyl)-5-oxopyrrolidine-2-carboxamide] | +++ (Ki(cathepsin K)/Ki(calpain) ratio of >30) | +++ (Ki(cathepsin S)/Ki(calpain) ratio of >100) |
| ++ (10<Ki(cathepsin B)/Ki(calpain)≦30) | + (5<Ki(cathepsin L)/Ki(calpain)≦10) |  | NC(=O)C(=O)C(Cc1ccccc1)NC(=O)[C@H]1CCC(=O)N1c1ccccc1 (stereo partly drawn) [Example 15, (2R)—N-(4-Amino-3,4-dioxo-1-phenylbutan-2-yl)-5-oxo-1-phenylpyrrolidine-2-carboxamide] | + (5<Ki(cathepsin K)/Ki(calpain)≦10) | + (10<Ki(cathepsin S)/Ki(calpain)≦30) |

More lines, now with the values behind:

| Structure (SMILES) | Sel cat. B [1] | Sel cat. L [2] | Ki [3] | Sel cat. K [4] | Sel cat. S [5] |
| --- | --- | --- | --- | --- | --- |
| O=C(NCc1nccs1)C(=O)C(Cc1ccccc1)NC(=O)[C@H]1CCC(=O)N1Cc1ccccc1 (mixture of isomers) [Example 59, (2R)-1-Benzyl-N-(3,4-dioxo-1-phenyl-4-(thiazol-2-ylmethylamino)butan-2-yl)-5-oxopyrrolidine-2-carboxamide] | +++ (Ki(cathepsin B)/Ki(calpain) ratio of >30) | ++ (10<Ki(cathepsin B)/Ki(calpain)≦30) | 100 to 600 nM | +++ (Ki(cathepsin K)/Ki(calpain) ratio of >30) | +++ (Ki(cathepsin S)/Ki(calpain) ratio of >100) |
| NC(=O)C(=O)C(Cc1ccccc1)NC(=O)[C@H]1CCC(=O)N1Cc1ccccc1C(F)(F)F (stereo partly drawn) [Example 17, (2R)—N-(4-Amino-3,4-dioxo-1-phenylbutan-2-yl)-5-oxo-1-[2-(trifluoromethyl)benzyl]-pyrrolidine-2-carboxamide] | ++ (10<Ki(cathepsin B)/Ki(calpain)≦30) | +++ (Ki(cathepsin L)/Ki(calpain) ratio of >30) | 50 to 100 nM | +++ (Ki(cathepsin K)/Ki(calpain) ratio of >30) | +++ (Ki(cathepsin S)/Ki(calpain) ratio of >100) |
| O=C(NCc1ccc(F)cc1)C(=O)C(Cc1ccccc1)NC(=O)[C@H]1CCC(=O)N1Cc1ccccc1 (mixture of isomers) [Example 67, (2R)-1-Benzyl-N-(4-(4-fluorobenzylamino)-3,4-dioxo-1-phenylbutan-2-yl)-5-oxopyrrolidine-2-carboxamide] | +++ (Ki(cathepsin B)/Ki(calpain) ratio of >30) | +++ (Ki(cathepsin L)/Ki(calpain) ratio of >30) | < 50 nM | +++ (Ki(cathepsin K)/Ki(calpain) ratio of >30) | +++ (Ki(cathepsin S)/Ki(calpain) ratio of >100) |
| O=C(NC1CC1)C(=O)C(Cc1ccccc1)NC(=O)[C@H]1CCC(=O)N1Cc1ccccc1Cl (mixture of isomers) [Example 46, (2R)-1-(2-Chlorobenzyl)-N-(4-(cyclopropylamino)-3,4-dioxo-1-phenylbutan-2-yl)-5-oxopyrrolidine-2-carboxamide] | ++ (10<Ki(cathepsin B)/Ki(calpain)≦30) | +++ (Ki(cathepsin L)/Ki(calpain) ratio of >30) | 50 to 100 nM | +++ (Ki(cathepsin K)/Ki(calpain) ratio of >30) | +++ (Ki(cathepsin S)/Ki(calpain) ratio of >100) |
| CCNC(=O)C(=O)C(Cc1ccccc1)NC(=O)[C@H]1CCC(=O)N1Cc1ccccc1Cl (mixture of isomers) [Example 47, (2R)-1-(2-Chlorobenzyl)-N-(4-(ethylamino)-3,4-dioxo-1-phenylbutan-2-yl)-5-oxopyrrolidine-2-carboxamide] | +++ (Ki(cathepsin B)/Ki(calpain) ratio of >30) | +++ (Ki(cathepsin L)/Ki(calpain) ratio of >30) | 100 to 600 nM | +++ (Ki(cathepsin K)/Ki(calpain) ratio of >30) | ++ (30<Ki(cathepsin B)/Ki(calpain)≦100) |
| O=C(NCc1ccc2c(c1)OCO2)C(=O)C(Cc1ccccc1)NC(=O)[C@H]1CCC(=O)N1Cc1ccccc1 (mixture of isomers) [Example 66, (2R)—N-(4-(Benzo[d][1,3]-dioxol-5-ylmethylamino)-3,4-dioxo-1-phenylbutan-2-yl)-1-benzyl-5-oxopyrrolidine-2-carboxamide] | +++ (Ki(cathepsin B)/Ki(calpain) ratio of >30) | ++ (10<Ki(cathepsin B)/Ki(calpain)≦30) | 50 to 100 nM | ++ (10<Ki(cathepsin B)/Ki(calpain)≦30) | +++ (Ki(cathepsin S)/Ki(calpain) ratio of >100) |
| CCNC(=O)C(=O)C(Cc1ccccc1)NC(=O)[C@H]1CCC(=O)N1Cc1c(Cl)cccc1Cl (mixture of isomers) [Example 62, (2R)-1-(2,6-Dichlorobenzyl)-N-(4-(ethylamino)-3,4-dioxo-1-phenylbutan-2-yl)-5-oxopyrrolidine-2-carboxamide] | ++ (10<Ki(cathepsin B)/Ki(calpain)≦30) | ++ (10<Ki(cathepsin B)/Ki(calpain)≦30) | 100 to 600 nM | ++ (10<Ki(cathepsin B)/Ki(calpain)≦30) | ++ (30<Ki(cathepsin B)/Ki(calpain)≦100) |
